From paper PMC6748986, “Potent modulation of the CepR quorum sensing receptor and virulence in a Burkholderia cepacia complex member using non-native lactone ligands” (Scientific Reports, 2019)
pEC50: −log10 of the molar value.

What was measured:
CepR [1] = target: T1, CepR (Burkholderia cenocepacia, UniProt B4EMD0); assay: CepR agonism in E. coli β-galactosidase reporter (Ec-reporter) JLD271 [pJN105-cepR + pSC11-cepI]; type: cell-based, B. cenocepacia; conditions: Table S2, Ec-reporter
T1 sequence (B4EMD0 1-239): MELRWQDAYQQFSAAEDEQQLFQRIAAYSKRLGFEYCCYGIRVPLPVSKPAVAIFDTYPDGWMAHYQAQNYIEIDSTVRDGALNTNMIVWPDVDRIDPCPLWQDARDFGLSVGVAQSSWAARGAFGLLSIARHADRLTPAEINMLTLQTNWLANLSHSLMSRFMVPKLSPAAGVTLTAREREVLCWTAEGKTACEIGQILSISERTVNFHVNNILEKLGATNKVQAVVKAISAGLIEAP
Source text: (§1) We began our study by screening the AHL library for CepR modulators using an E. coli-based two plasmid reporter system (Ec-reporter)[38]–[40]. Certain members of the Bcc harbor additional QS systems that are either AHL-based (e.g., BviI/BviR in B. vietnamiensis)[41] or diffusible signal factor (DSF)-based (B. cenocepacia)[42], and at least one member of the Bcc has multiple receptors that respond to C8-AHL (e.g., CepR and CepR2 in B. cenocepacia)[43]. Thus, we reasoned that using a CepR reporter in a heterologous background could simplify our initial analyses. We modified our previously reported E. coli-based two plasmid β-galactosidase reporter system to develop a CepR Ec-reporter (see Methods). The first plasmid, pJN105-cepR, contains CepR from B. cenocepacia under the control of the L-arabinose inducible pBAD promoter. A second plasmid contains a transcriptional fusion of lacZ to the cepI promoter region. The two plasmids were co-transformed into a QS mutant E. coli strain (JLD271 ∆sdiA) that lacks its LuxR-type receptor, SdiA. Using this reporter system, if an exogenously -added compound is able to interact with CepR, this will affect the protein’s interaction with the cepI promoter region and alter β-galactosidase production. Enzyme production, and thereby CepR activity, is then measurable via the degradation of a colorimetric substrate for β-galactosidase. Using this new Ec-reporter, we observed robust activity of CepR in response to its native ligand C8-AHL, with an EC50 of 5 nM (Table 1).
We used the CepR Ec-reporter to perform a primary agonism screen at a single compound concentration (100 μM, or its solubility limit, indicated in Table S1). Thirty-one compounds displaying ≥70% agonistic activity in CepR (relative to C8-AHL) were identified and subjected to dose-response analyses using the Ec-reporter (Table I; see Table S2 for complete screening data and Fig. S3 for dose-response curves).
(§2) E. coli β-galactosidase reporter assays (derived from ref.[63]) and reagents used to obtain primary screening and dose-response data were performed as previously described[22],[60],[64], with the following modifications: E. coli JLD271 (∆sdiA) was co-transformed iteratively with pSC11-cepI and pJN105-cepR via electroporation. A single colony was used to start overnight cultures in LB medium + ampicillin (100 μg/mL) + gentamicin (15 μg/mL). A 1:10 dilution of overnight culture was grown in fresh medium to OD600 = 0.25. A sterile solution of L-arabinose in water (27 mM final concentration) was added to induce protein expression, after which cells were plated in 96-well plates containing varying concentrations of compound (200 μL total volume).
(§3) Cells were grown for 4 h, OD600 was read, 50 μL aliquots from each well were permeabilized in 200 μL Z Buffer, and then 150 μL of this mixture used to measure the cleavage of 25 μL of 4 mg/mL CPRG in phosphate buffered saline (PBS) at 37 °C until positive control wells developed a deep red color (~30 min). For all agonism assays, synthetic compound (100 μM) was screened alongside and compared to the native ligand, C8-AHL (100 μM). For all primary and dose-response antagonism assays, the concentration of native ligand utilized was 10 nM (approximately equal to twice its EC50 value). […] At least 3 separate trials were performed using unique cultures on separate days.

CepR [2] = target: T1, CepR; assay: CepR antagonism in E. coli β-galactosidase reporter (Ec-reporter), competition against C8-AHL; type: cell-based, B. cenocepacia; conditions: for Inh% (100-Act%): Table S3, Ec-reporter
Source text: as §1
To identify antagonists of CepR, we screened the AHL library (at 100 μM) in competition against the native ligand C8-AHL (at approximately twice its EC50 value, 0.01 μM) in the Ec-reporter. […] The active compounds were subjected to dose-response analyses in the Ec-reporter to obtain IC50 values and assess their relative potencies (Table 2; see Table S3 for complete screening data and Fig. S3 for dose-response curves). One general trend that we noted at the outset was the majority of the antagonists had acyl tails of similar or shorter overall length than CepR’s native ligand, C8-AHL. From this set, the strongest antagonists could be divided into two classes: (i) “short alkyl tail” AHLs or analogs thereof, and (ii) phenylacetanoyl HLs (PHLs). The discovery that the latter compounds were CepR antagonists was perhaps not surprising, as we have found substituted PHLs to strongly antagonize the majority of the LuxR-type receptors studied in our laboratory to date[22],[24],[29],[45],[46].
as §2, §3

[3] = screening conc. 100 μM, against 10 nM C8-AHL

## CCCCCCCC(=O)CC(=O)N[C@H]1CCOC1=O [3’O-C10-AHL, reference compound]
CepR [1]
  pEC50: 5.64
CepR [1]; screening conc. 100 μM
  Act%: 110%
CepR [2]; [3]
  Inh% (100-Act%): -60%

## O=C(Cc1cc(C(F)(F)F)cc(C(F)(F)F)c1)N[C@H]1CCOC1=O [Compound E9]
CepR [1]; screening conc. 100 μM
  Act%: 2.2%
CepR [2]; [3]
  Inh% (100-Act%): 13%

## O=C(NCc1cc(Br)cc(Br)c1OC(=O)c1ccccc1[N+](=O)[O-])c1ccccc1Cl [TP-1P, reference compound]
CepR [1]; screening conc. 100 μM
  Act%: 54%
CepR [2]; [3]
  Inh% (100-Act%): 0.0%

## O=C(N[C@H]1CCOC1=O)c1ccc(Oc2ccc(Br)cc2)cc1 [Compound Q10]
CepR [1]; screening conc. 100 μM
  Act%: 64%
CepR [2]; [3]
  Inh% (100-Act%): -40%

## CC(C)(C)OC(=O)NCCCCC(=O)N[C@H]1CCOC1=O [Compound D1]
CepR [1]; screening conc. 100 μM
  Act%: 16%
CepR [2]; [3]
  Inh% (100-Act%): 11%

## O=C(CC(=O)N[C@H]1CCOC1=O)Cc1cccc(Cl)c1 [Compound H23]
CepR [1]; screening conc. 100 μM
  Act%: 53%
CepR [2]; [3]
  Inh% (100-Act%): -20%

## O=C(COc1ccc(C(F)(F)F)cc1)N[C@H]1CCOC1=O [Compound E23]
CepR [1]; screening conc. 100 μM
  Act%: 89%
CepR [2]; [3]
  Inh% (100-Act%): -10%

## O=C(C=Cc1ccccc1)NC1CCOC1=O (stereo not shown) [Compound B10]
CepR [1]; screening conc. 100 μM
  Act%: 60%
CepR [2]; [3]
  Inh% (100-Act%): 11%

## O=C(Cc1ccccc1F)N[C@H]1CCOC1=O [Compound C4]
CepR [1]; screening conc. 100 μM
  Act%: 0.1%
CepR [2]; Ec-reporter
  CepR antagonism in words: inactive as antagonists
CepR [2]; [3]
  Inh% (100-Act%): 3.0%

## O=C(COc1ccc(Br)cc1)N[C@H]1CCOC1=O [Compound E21]
CepR [1]; screening conc. 100 μM
  Act%: 89%
CepR [2]; [3]
  Inh% (100-Act%): -10%

## O=C(Cc1ccccc1)N[C@H]1CCOC1=O [Compound C1]
CepR [1]; screening conc. 100 μM
  Act%: 0.0%
CepR [2]; Ec-reporter
  CepR antagonism in words: inactive
CepR [2]; Ec-reporter, against 10 nM C8-AHL
  Maximal Inhibition (%): 8%

## CCCCCCCCCC(=O)CC(=O)NC1CCCCC1=O (stereo not shown) [Control 15, reference compound]
CepR [1]; screening conc. 100 μM
  Act%: 5.2%
CepR [2]; [3]
  Inh% (100-Act%): 29%

## O=C(COc1ccc([N+](=O)[O-])cc1)N[C@H]1CCOC1=O [Compound E24]
CepR [1]; screening conc. 100 μM
  Act%: 75%
CepR [2]; [3]
  Inh% (100-Act%): -10%

## O=C(N[C@H]1CCOC1=O)c1ccc2c(c1)OCO2 [Compound Q11]
CepR [1]; screening conc. 100 μM
  Act%: 6.9%
CepR [2]; [3]
  Inh% (100-Act%): 5.0%

## CC(C)(C)OC(=O)Nc1ccc(CC(=O)N[C@H]2CCOC2=O)cc1 [Compound C22]
CepR [1]; screening conc. 100 μM
  Act%: 1.1%
CepR [2]; [3]
  Inh% (100-Act%): -70%

## O=C(Cc1ccc(Cl)cc1)N[C@H]1CCOC1=O [Compound C5]
CepR [1]; screening conc. 100 μM
  Act%: 0.1%
CepR [2]; [3]
  Inh% (100-Act%): 25%

## CCCCCCCCCC(=O)CC(=O)NCCc1ccccc1 [Compound F50]
CepR [1]; screening conc. 50 μM
  Act%: 12%
CepR [2]; screening conc. 50 μM
  Inh% (100-Act%): 1.0%

## O=C(CCCc1c[nH]c2ccccc12)NC1CCCC1 [Compound F21]
CepR [1]; screening conc. 100 μM
  Act%: -4.0%
CepR [2]; [3]
  Inh% (100-Act%): 25%

## CCCCCCC(=O)N[C@H]1CCOC1=O [Compound C7-AHL, reference compound]
CepR [1]; screening conc. 100 μM
  Act%: 106%
CepR [2]; [3]
  Inh% (100-Act%): -10%

## O=C(N[C@H]1CCOC1=O)c1ccccc1Br [Compound Q1]
CepR [1]; screening conc. 100 μM
  Act%: 5.8%
CepR [2]; [3]
  Inh% (100-Act%): -30%

## O=C(CCCc1ccccc1)N[C@@H]1CCOC1=O [Compound B3]
CepR [1]; screening conc. 100 μM
  Act%: -0.4%
CepR [2]; [3]
  Inh% (100-Act%): -30%

## Cc1nc(-c2ccccc2)oc1CC(=O)N[C@H]1CCOC1=O [Compound D4]
CepR [1]; screening conc. 100 μM
  Act%: 40%
CepR [2]; [3]
  Inh% (100-Act%): 22%

## COc1cccc(CC(=O)N[C@H]2CCOC2=O)c1 [Compound E2]
CepR [1]; screening conc. 100 μM
  Act%: 28%
CepR [2]; [3]
  Inh% (100-Act%): -10%
